Assay results from US20160113921A1, “COMBINATION THERAPY COMPRISING OXAZOLIDINONE-QUINOLONES FOR USE IN TREATING BACTERIAL INFECTIONS” (MORPHOCHEM AKTIENGESELLSCHAFT FÜR KOMBINATORISCHE CHEMIE, priority 2013, published 2016).
Values after ≈ are worked out from the molar mass of the structure shown. Values joined by “and” are separate entries in the source; they are usually repeats but may differ in a detail not shown here. Equal entries are not always repeated.

What was measured:
Type in all cases: cell-based
E. coli NRZ-00401 = experiment: Time-kill curves; conditions: E. coli NRZ00401; for growth- and kill rates k ('+' = growth, unmarked = kill rate): first four hours
E. coli GNS-2601 = experiment: Time-kill curves; conditions: E. coli GNS2601; for growth- and kill rates k ('+' = growth, unmarked = kill rate): first four hours
[1] = test system: S. aureus DSM 11823, clone 16 (MSSA, quinolone-resistant); experiment: microbe, parasite or virus in culture; conditions: Staphylococcus aureus
Description: (§1) MIC-testing was done immediately after preparation of the dilutions. All tests were done in duplicate and repeated once on a separate occasion.
(§2) 1 mL of the bacterial suspension was transferred into a tube containing 10 mL CAMHB and was vortexed thoroughly. (S. pneumoniae 1 mL in 10 mL CAMHB+5% lysed horse blood). Columns 1-15 of the 96-well plate were inoculated with 5 μL of this suspension (1-15=antibacterial solution, 16=sterile medium without test item).
(§3) Turbidity was read visually with a mirror.

E. coli NRZ-00302 = experiment: Time-kill curves; conditions: E. coli NRZ00302; for growth- and kill rates k ('+' = growth, unmarked = kill rate): first four hours
[2] = test system: P. aeruginosa NRZ-00425 (VIM-2 β-lactamase); experiment: microbe, parasite or virus in culture; conditions: Pseudomonas aeruginosa, checkerboard, read-out: MIC (agent alone)
Text: The checkerboard consists of columns in which each well contains the same amount of antibacterial A being over i dilutions along the x-axis, and in rows in which each well contains the same amount of antibacterial B over j dilutions on the y-axis, i.e. serial dilutions of antibacterials A and B, respectively, are titrated in a rectangular fashion.
The fractional inhibitory concentration (FIC) is a mathematical expression of the effect of the combination of two antibacterial agents A and B. The FICs were calculated as the MIC of antibacterial A and antibacterial B in combination divided by the MIC of antibacterial A or antibacterial B alone.
The FICs and FIC index, respectively, are calculated according to the following equations:
FIC(A)=MIC(A in the presence of B)/MIC(A alone)
FIC(B)=MIC(B in the presence of A)/MIC(B alone)
The checkerboard titrations were performed three times.

[3] = test system: S. pneumoniae BAY 19397 (penicillin-, macrolide-, quinolone-resistant); experiment: MIC, broth microdilution (CLSI), CAMHB; conditions: monosubstance; Spn 19397; listed as MCB
Description: as §1, §2, §3

E. coli ATCC 25922 [4] = experiment: MIC, broth microdilution (CLSI), CAMHB; conditions: Escherichia coli; monosubstance; Ec ATCC25922; read-out: MIC
Description: as §1, §2, §3

S. aureus ATCC 29213 = experiment: MIC, broth microdilution (CLSI), CAMHB; conditions: Staphylococcus aureus; monosubstance; Sa ATCC29213; read-out: MIC
Description: as §1, §2, §3

E. faecalis ATCC 29212 = experiment: MIC, broth microdilution (CLSI), CAMHB; conditions: Enterococcus faecalis; monosubstance; Ef ATCC29212; read-out: MIC
Description: as §1, §2, §3

E. faecalis V583 (VanB) = experiment: MIC, broth microdilution (CLSI), CAMHB; conditions: Enterococcus faecalis; monosubstance; Ef V583; read-out: MIC
Description: as §1, §2, §3

S. pneumoniae ATCC 33400 = experiment: MIC, broth microdilution (CLSI), CAMHB; conditions: Streptococcus pneumoniae; monosubstance; Spn ATCC33400; read-out: MIC
Description: as §1, §2, §3

[5] = test system: S. aureus ATCC 33593 (MRSA); experiment: MIC, broth microdilution (CLSI), CAMHB; conditions: Staphylococcus aureus; monosubstance; Sa ATCC33593; read-out: MIC
Description: as §1, §2, §3

E. coli ATCC 25922 [6] = experiment: Time-kill curves; conditions: E. coli ATCC25922; for growth- and kill rates k ('+' = growth, unmarked = kill rate): first four hours
[7] = test system: E. coli ATCC 25922, NRZ-00401, NRZ-00302 and GNS-2601; experiment: Time-kill curves, statements on the four E. coli strains
[8] = test system: E. coli GNS-2601 (ESBL CTX-M-15); experiment: MIC, broth microdilution (CLSI), CAMHB; conditions: Escherichia coli; monosubstance; Ec GNS2601; read-out: MIC
Description: as §1, §2, §3

[9] = test system: E. coli NRZ-00302 (metallo β-lactamase NDM-1); experiment: MIC, broth microdilution (CLSI), CAMHB; conditions: Escherichia coli; monosubstance; Ec NRZ00302; read-out: MIC
Description: as §1, §2, §3

[10] = test system: E. coli NRZ-00401 (metallo β-lactamase VIM-1); experiment: MIC, broth microdilution (CLSI), CAMHB; conditions: Escherichia coli; monosubstance; Ec NRZ00401; read-out: MIC
Description: as §1, §2, §3

CC(=O)NC[C@H]1CN(c2ccc(OCC3(O)CCN(c4cc5c(cc4F)c(=O)c(C(=O)O)cn5C4CC4)CC3)c(F)c2)C(=O)O1 [Compound 1, 7-(4-{4-[(5S)-5-(acetylamino-methyl)-2-oxo-oxazolidin-3-yl]-2-fluoro-phenoxymethyl}-4-hydroxy-piperidin-1-yl)-1-cyclopropyl-6-fluoro-4-oxo-1,4-dihydro-quinoline-3-carboxylic acid]
Viable counts at 8 h of exposure (E. coli NRZ-00401; single agent at 1x its MIC): 6.32 log10 CFU/mL | Viable counts at 8 h of exposure (E. coli GNS-2601; single agent at 1x its MIC, listed as MCB): 8.34 log10 CFU/mL and 7.34 log10 CFU/mL | Viable counts at 8 h of exposure (E. coli GNS-2601; single agent at 2x its MIC): 6.29 log10 CFU/mL | MIC [1]: 0.03 µg/mL (≈ 0.0479 µM) | Viable counts at 8 h of exposure (E. coli NRZ-00302; single agent at 1x its MIC): 8.28 log10 CFU/mL | Viable counts at 8 h of exposure (E. coli NRZ-00302; single agent at 2x its MIC): 5.69 log10 CFU/mL | MIC [2]: 128 to 256 µg/mL | MIC [3]: 0.0004 µg/mL (≈ 0.000638 µM) | MIC (E. coli ATCC 25922 [4]): 16 µg/mL (≈ 25.5 µM) | MIC (S. aureus ATCC 29213): 0.25 µg/mL (≈ 0.399 µM) | MIC (E. faecalis ATCC 29212): 0.03 µg/mL (≈ 0.0479 µM) | MIC (E. faecalis V583 (VanB)): 0.03 µg/mL (≈ 0.0479 µM) | MIC (S. pneumoniae ATCC 33400): 0.0075 µg/mL (≈ 0.012 µM) | MIC [5]: 0.03 µg/mL (≈ 0.0479 µM) | Viable counts at 8 h of exposure (E. coli ATCC 25922 [6]; single agent at 1x its MIC): 4.69 log10 CFU/mL | Viable counts at 8 h of exposure (E. coli ATCC 25922 [6]; single agent at 2x its MIC, listed as MCB): 2.61 log10 CFU/mL and 2.62 log10 CFU/mL

C[C@@H]1O[C@@H]1P(=O)(O)O [fosfomycin]
growth- and kill rates k ('+' = growth, unmarked = kill rate) (E. coli NRZ-00401; single agent at 1x its MIC): +0.40 h^−1 | growth- and kill rates k ('+' = growth, unmarked = kill rate) (E. coli NRZ-00401; single agent at 2x its MIC): +0.32 h^−1 | Viable counts at 8 h of exposure (E. coli NRZ-00401; single agent at 1x its MIC): 7.95 log10 CFU/mL | Viable counts at 8 h of exposure (E. coli NRZ-00401; single agent at 2x its MIC): 6.65 log10 CFU/mL | growth- and kill rates k ('+' = growth, unmarked = kill rate) (E. coli GNS-2601; single agent at 1x its MIC): 1.21 h⁻¹ | growth- and kill rates k ('+' = growth, unmarked = kill rate) (E. coli GNS-2601; single agent at 2x its MIC): 1.85 h⁻¹ | Viable counts at 8 h of exposure (E. coli GNS-2601; single agent at 1x its MIC): 5.08 log10 CFU/mL | Viable counts at 8 h of exposure (E. coli GNS-2601; single agent at 2x its MIC): 3.45 log10 CFU/mL | growth- and kill rates k ('+' = growth, unmarked = kill rate) (E. coli NRZ-00302; single agent at 1x its MIC): 1.67 h⁻¹ | growth- and kill rates k ('+' = growth, unmarked = kill rate) (E. coli NRZ-00302; single agent at 2x its MIC): 2.09 h⁻¹ | Viable counts at 8 h of exposure (E. coli NRZ-00302; single agent at 1x its MIC): 2.78 log10 CFU/mL | Viable counts at 8 h of exposure (E. coli NRZ-00302; single agent at 2x its MIC): 1.30 log10 CFU/mL | type of activity in time-kill ([7]; strains ATCC 25922, NRZ-00401): bacteriostatically | type of activity in time-kill ([7]; strains NRZ-00302 and GNS-2601): bactericidal | MIC (E. coli ATCC 25922 [4]): 2 µg/mL (≈ 14.5 µM) | MIC [8]: 64 µg/mL (≈ 464 µM) | MIC [9]: 64 µg/mL (≈ 464 µM) | MIC [10]: 2 µg/mL (≈ 14.5 µM) | growth- and kill rates k ('+' = growth, unmarked = kill rate) (E. coli ATCC 25922 [6]; single agent at 1x its MIC): +0.68 h^−1 | growth- and kill rates k ('+' = growth, unmarked = kill rate) (E. coli ATCC 25922 [6]; single agent at 2x its MIC): +0.72 h^−1 | Viable counts at 8 h of exposure (E. coli ATCC 25922 [6]; single agent at 1x its MIC): 8.95 log10 CFU/mL | Viable counts at 8 h of exposure (E. coli ATCC 25922 [6]; single agent at 2x its MIC): 8.59 log10 CFU/mL
